Measured values taken from patent US20250144055A1, “METHOD AND COMPOSITION FOR REDUCING MYOPIA PROGRESSION” (THE HONG KONG POLYTECHNIC UNIVERSITY, priority 2023, published 2025).
Several values for one entry are separate records, joined by “and”; a condition that tells them apart may be missing. Identical values can stand only once. Like-named read-outs stand apart in the source and are kept apart here.

Tests used:
[1] = test system: neuroendocrine chromaffin cells; settings: 1 μM celastrol; cited from earlier work
[2] = test system: lens-induced myopia (LIM) chicks; experiment: unilateral lens-induced myopia (LIM) chick model, intravitreal injection; assay type: in vivo, White Leghorn chicks (Gallus gallus)
Procedure: To create a lens-induced myopia (LIM) animal model, concave lenses of −5 D were applied to the White Leghorn chicks (Gallus gallus), hatched from specific pathogen-free eggs (SPF, Jinan, China), until they were ten days old (PN10, baseline). All the animals were raised in standard cages at 25° C. with sufficient food and water daily under the 12 h:12 h light/dark cycle. The central ambient luminance over the cages was maintained at around 260 lux.
Turning to FIG. 1, starting from ten days old (PN10), the LIM chicks received four intravitreal injections in four consecutive days, i.e., PN10, PN11, PN12 and PN13 (s101). LIM chicks were randomly assigned to two groups, including LIM chicks (n=6) with vehicle injection (1% DMSO with 1% β-CDs) (101b) and LIM chicks (n=7) with celastrol injection (74 μM celastrol dissolved in 1% DMSO with 1% β-CDs) (101a), and no gender preference was selected in the experimental groupings. β-CDs were selected as a drug carrier of celastrol because of its doughnut-shaped cavities with hydrophilic outer and hydrophobic inner surfaces to form a complex with the celastrol to enhance the solubility, stability and permeation of celastrol in vivo. The freshly prepared solution (10 μl) was injected monocularly with a 0.3-mL syringe (31-gauge needle, BD Medical, Le Pont deClaix, France) into the vitreous through the sclera, choroid, and retina close to the margin of the upper orbit. Immediately following the first injection on PN10, the LIM chicks' right (or left) eyes were assigned to −5 D lenses (treated eyes 102a), and no lens was attached to the fellow eyes (control eyes 102b) (s102). The treated eyes 102a covered with lens in each LIM chick (unilateral LIM) received the subsequent celastrol injection 101a or vehicle 101b on PN11, PN12 and PN13, whereas there was no treatment for the contralateral (control) eye 102b.
After 7-day LIM (PN17), the lenses were removed for 2 hours (s103). The refractive error and ocular parameters were recorded separately at baseline (PN10), 7-day LIM (PN17), and after 2-hour recovery (PN17+2 hr) using the steak retinoscopy and high-frequency ultrasonography (s104). Refractive errors were detected using a streak retinoscope, and ocular parameters were measured using a high-frequency A-scan ultrasound system with a 30 MHz transducer (Panametrics, Inc., Waltham, MA), respectively, before and after treatments. The spherical equivalent (S.E.) was calculated from the refractive status (S.E.=spherical power+½ cylindrical power). Axial length (AL) was defined from the front of the cornea to the back of the vitreous chamber.
Biometric data obtained from unilateral LIM chicks treated with or without celastrol according to the scheme depicted in Example 1 and FIG. 1 were analyzed. First of all, after the 7-day lens treatment period (PN1, the interocular differences (differences between the lens-treated eyes and the contralateral fellow eyes) were calculated for the three ocular parameters (refractive error, vitreous chamber depth, and axial length), and the results are shown in FIGS. 2A-2C, respectively. Because choroid thickness change is believed to be an indicator of progression to myopia, the choroidal thickness was also measured after a 2-hour recovery, and the results are shown in FIG. 2D. The mean interocular differences and choroidal thickness changes are presented with ±SD. The significance between celastrol and vehicle groups was analyzed using an unpaired t-test with equal variance.

[3] = test system: retinal ganglion cells (RGCs); settings: cited from earlier work
[4] = body weight of unilateral LIM chicks after 7-day LIM; assay type: in vivo, White Leghorn chicks (Gallus gallus); settings: after 7-day LIM (PN17), 74 μM intravitreal x4 days
Description: The present disclosure provides a method for reducing myopia progression by administering a therapeutically effective amount of celastrol via intravitreal injection to a vitreous or via a non-invasive route, such as topically to the eye, e.g., as an eye drop containing a therapeutically effective amount of celastrol administered to a cornea or conjunctiva of a subject's eye. […] Change of body weight before and after 7-day LIM and choroidal thickness of a uvea of the celastrol group after 2-hr removal of the lens from the unilateral LIM chicks following the 7-day LIM were also quantified to show no adverse side effect but an increase in choroidal thickness induced by a low-dose celastrol. […] For instance, if celastrol is administered via the intravitreal injection, based on the difference in vitreous volume between the animal model tested and the human being, the human equivalent dose of celastrol could be determined. Taking chicken's vitreous volume as an illustrative example, if the celastrol is administered at about 74 μM via intravitreal injection to the chicken's vitreous, assuming that the vitreous volume of a chicken in general is about 200 μl, based on an estimated human vitreous volume (about 4.5 ml), the human equivalent dose of celastrol via intravitreal injection is determined to be about 1.665 mM. […]

## CC1=C(O)C(=O)C=C2C1=CC=C1[C@@]2(C)CC[C@@]2(C)[C@@H]3C[C@](C)(C(=O)O)CC[C@]3(C)CC[C@]12C [celastrol]
[1]
  increase in dopamine: 6 fold
[2]; 74 μM celastrol, 10 μl intravitreal q.d. PN10-PN13, after 7-day LIM (PN17), lens-treated minus fellow eye, n=7
  interocular difference in refractive error (spherical equivalent), mean±SD: −1.68±2.03 D
[2]; 74 μM intravitreal x4 days, after 2-hour recovery from 7-day LIM (PN17+2 hr), P=0.072 vs vehicle
  choroidal thickness change, mean±SD: 65.98±20.89 μm
[2]; 74 μM intravitreal x4 days, after 7-day LIM (PN17), A-scan, P=0.054 vs vehicle
  interocular difference in axial length (AL), mean±SD: 0.088±0.109 mm
[2]; 74 μM intravitreal x4 days, after 7-day LIM (PN17), A-scan, n=7
  interocular difference in vitreous chamber depth (VCD), mean±SD: 0.190±0.105 mm
[2]; Gallus gallus, 168 h, celastrol group vs vehicle group, 74 μM intravitreal, 7-day LIM, read-out: inhibition of myopia based on refractive error data
  inhibition at 74 µM: ~46.3%
[2]; after 7-day LIM (PN17)
  averaged shift of relative myopia in interocular difference, vehicle group versus celastrol group (mean): −1.45 D
[2]; after 7-day LIM (PN17), P>0.05
  enlargement of VCD in vehicle group compared with celastrol group: 0.070 mm
  numerical elongation of AL in vehicle group compared with celastrol group (mean): 0.174 mm
[2]; celastrol group vs vehicle group, 74 μM intravitreal, 7-day LIM
  inhibition of myopia based on axial length data: ~66.4% and ~46.2%
[2]; intravitreal injection at the dose tested (74 μM)
  myopia progression: could suppress myopia progression
[3]; injection of 1 mg/kg celastrol
  increase in average number of retinal ganglion cells (RGCs) compared to controls: approximately 80%
[3]; injection of 5 mg/kg celastrol
  increase in average number of retinal ganglion cells (RGCs) compared to controls: ~78%
[4]
  body weight compared with vehicle group: no retardation of growth regarding body weight
